Laboratory results as given in patent publication US11712434B2, “Compound having anti-cancer effect, and preparation method therefor and use thereof” (3D MEDICINES (BEIJING) CO., LTD., priority 2016, dated 2023).

What was measured:
Assay in all cases: Cell proliferation assay (Alamar Blue)
Assay type in all cases: cell-based
[1] = tested on: SNU739; conditions: SNU739 liver cancer cell line; 6 days culture
Experimental: (§1) 1. Instruments and Materials • Thermo 311 CO2 incubator; Haier biosafety cabinet; Molecular Devices microplate reader; Xiangyi brand L530 desktop low speed centrifuge; Olympus IX51 inverted fluorescence microscope, DMEM, RPMI 1640, MEM, DMEM/F12 1:1 medium, Fetal bovine serum, 0.25% trypsin solution, phosphate buffer (Thermo Fisher Shanghai Co., Ltd.); sigma dimethyl sulfoxide (DMSO), resazurin; 54 commercial tumor cell lines (including 26 liver cancer cell lines). Experimental drugs: compounds 1-12 and active drug Linifanib; chemotherapeutic drug Doxorubicin (HY-15142; Shanghai Qianyuan Biomedical Technology Co., Ltd.).
(§2) 2. Experimental Methods • 2.1 Cultivation of Different Cell Lines • 54 cell lines were cultured in a culture medium containing fetal bovine serum and placed in a 5% CO2 incubator at 37° C. for incubation. The cells were all grown in an adherent state, and the growth was observed under an inverted microscope, and subculture was performed when the cell confluence rate reached 80%-90%. The proportion and quantity of passage were determined by experimental needs. The ratio of subculture of this cell line was generally 1:2^˜1:3. • 2.2 Inhibition Effect on the Proliferation of Different Tumor Cell Lines • Cell test: 54 cell lines in logarithmic growth phase were inoculated in 96-well culture plates at 500^˜1×10^4/well (the optimal seeding density of each cell line was determined in pre-experiment), After incubating at 37° C. for 4 h in a 5% CO2 humidification incubator, added 10 μL of compounds 1-12 or Linifanib to each well, and tested 9 drug concentration gradients for each compound (diluted from the highest concentration of the test by 3.16 times). The solubility of each compound was different at a starting concentration of 100 or 30 μM, respectively. The QC reference compound Doxorubicin was added simultaneously to each cell line test, and the final drug concentrations were 10, 3.16, 1, 0.31, 0.1, 0.03, 0.01, 0.003, and 0.001 μM, respectively. In addition, a positive control group (100% inhibition) and a negative control group (0% inhibition) were set at the same time. The drug group was repeated for 2 wells per concentration, and the positive control group and the negative control group were repeated for 6 wells. After the culture was continued for 6 days in the incubator, AlamarBlue test operation was followed; • AlamarBlue test procedure: Incubated with 10 μL of AlamarBlue reagent per well for 1-4 h, shook for 1-2 min, MD microplate reader EX: 560 nm, EM: 590 nm wavelength to measure fluorescence, recorded the results, calculated the cell inhibition rate of the compound of the invention. Cell inhibition rate (%)=(A0% inhibition−A administration)/(A0% inhibition−A100% inhibition)×100%, and then using the method of nonlinear regression using GraphPad Prism 5.0 or MATILAB software (usually using four parameters) to graph and obtain a drug dose response curve to obtain an IC50 value of the compound of the present invention acting on a cancer cell line.

[2] = tested on: NCI-H661; conditions: NCI-H661 tumor cell line; 6 days culture
Experimental: as §1, §2

[3] = tested on: SNU886; conditions: SNU886 liver cancer cell line; 6 days culture
Experimental: as §1, §2

[4] = tested on: LC-2-ad; conditions: LC-2-ad tumor cell line; 6 days culture
Experimental: as §1, §2

[5] = tested on: HuTu80; conditions: HuTu80 tumor cell line; 6 days culture
Experimental: as §1, §2

[6] = tested on: MDA-MB-435S; conditions: MDA-MB-435S tumor cell line; 6 days culture
Experimental: as §1, §2

[7] = tested on: T.T; conditions: T.T tumor cell line; 6 days culture
Experimental: as §1, §2

[8] = tested on: DLD1; conditions: DLD1 tumor cell line; 6 days culture
Experimental: as §1, §2

[9] = tested on: JHH7; conditions: JHH7 liver cancer cell line; 6 days culture
Experimental: as §1, §2

[10] = tested on: MDA-MB-231; conditions: MDA-MB-231 tumor cell line; 6 days culture
Experimental: as §1, §2

[11] = tested on: HT1080; conditions: HT1080 tumor cell line; 6 days culture
Experimental: as §1, §2

[12] = tested on: TE-15; conditions: TE-15 tumor cell line; 6 days culture
Experimental: as §1, §2

[13] = tested on: SNU423; conditions: SNU423 liver cancer cell line; 6 days culture
Experimental: as §1, §2

[14] = tested on: SNU398; conditions: SNU398 liver cancer cell line; 6 days culture
Experimental: as §1, §2

[15] = tested on: JHH5; conditions: JHH5 liver cancer cell line; 6 days culture
Experimental: as §1, §2

[16] = tested on: NCI-H716; conditions: NCI-H716 tumor cell line; 6 days culture
Experimental: as §1, §2

[17] = tested on: SNU761; conditions: SNU761 liver cancer cell line; 6 days culture
Experimental: as §1, §2

[18] = tested on: HUH7; conditions: HUH7 liver cancer cell line; 6 days culture
Experimental: as §1, §2

[19] = tested on: SW620; conditions: SW620 tumor cell line; 6 days culture
Experimental: as §1, §2

[20] = tested on: SNU449; conditions: SNU449 liver cancer cell line; 6 days culture
Experimental: as §1, §2

[21] = tested on: SNU182; conditions: SNU182 liver cancer cell line; 6 days culture
Experimental: as §1, §2

[22] = tested on: HUH6; conditions: HUH6 liver cancer cell line; 6 days culture
Experimental: as §1, §2

[23] = tested on: TE-6; conditions: TE-6 tumor cell line; 6 days culture
Experimental: as §1, §2

[24] = tested on: LNCAP-clone-FGC; conditions: LNCAP-clone-FGC tumor cell line; 6 days culture
Experimental: as §1, §2

[25] = tested on: Alexander cells; conditions: Alexander cells liver cancer cell line; 6 days culture
Experimental: as §1, §2

[26] = tested on: JHH4; conditions: JHH4 liver cancer cell line; 6 days culture
Experimental: as §1, §2

[27] = tested on: JHH1; conditions: JHH1 liver cancer cell line; 6 days culture
Experimental: as §1, §2

[28] = tested on: 22RV1; conditions: 22RV1 tumor cell line; 6 days culture
Experimental: as §1, §2

Row | SMILES | IC50 [1] | IC50 [2] | IC50 [3] | IC50 [4] | IC50 [5] | IC50 [6] | IC50 [7] | IC50 [8] | IC50 [9] | IC50 [10] | IC50 [11] | IC50 [12] | IC50 [13] | IC50 [14] | IC50 [15] | IC50 [16] | IC50 [17] | IC50 [18] | IC50 [19] | IC50 [20] | also measured
1 | Cc1ccc(F)c(NC(=O)Nc2ccc(-c3cccc4[nH]nc(NC(=O)CCCCCCCCCCCNC(=O)C[C@H](N)C(=O)N[C@@H](CCC(=O)N[C@@H](CCC(=O)N[C@@H](CCC(=O)N[C@@H](CCC(=O)N[C@@H](CCC(=O)N[C@@H](CCC(=O)N[C@@H](CCC(=O)N[C@@H](CCC(=O)N[C@@H](CCC(=O)O)C(=O)O)C(=O)O)C(=O)O)C(=O)O)C(=O)O)C(=O)O)C(=O)O)C(=O)O)C(=O)O)c34)cc2)c1 [Compound 9] | > 100 µM | > 100 µM | > 100 µM | > 100 µM | 90.4 µM | > 100 µM | > 100 µM | > 100 µM | > 100 µM | > 100 µM | > 100 µM | > 100 µM | > 100 µM | > 100 µM | > 100 µM | 77.2 µM | > 100 µM | 88.5 µM | > 100 µM | > 100 µM | IC50 [21]: > 100 µM; IC50 [22]: > 100 µM; IC50 [23]: > 100 µM; IC50 [24]: > 100 µM; IC50 [25]: > 100 µM; IC50 [26]: > 100 µM; IC50 [27]: > 100 µM; IC50 [28]: > 100 µM
2 | Cc1ccc(F)c(NC(=O)Nc2ccc(-c3cccc4[nH]nc(NC(=O)CCCCCCCCCCCNC(=O)C[C@H](N)C(=O)N[C@@H](CCC(=O)O)C(=O)O)c34)cc2)c1 [Compound 7] | > 100 µM | > 100 µM | 75.2 µM | 46.4 µM | 27.7 µM | > 100 µM | > 100 µM | > 100 µM | 63.4 µM | > 100 µM | > 100 µM | > 100 µM | > 100 µM | > 100 µM | > 100 µM | 41.6 µM | > 100 µM | 42.2 µM | 56.3 µM | > 100 µM | IC50 [21]: > 100 µM; IC50 [22]: > 100 µM; IC50 [23]: > 100 µM; IC50 [24]: 95.5 µM; IC50 [25]: > 100 µM; IC50 [26]: > 100 µM; IC50 [27]: > 100 µM; IC50 [28]: > 100 µM
